Laboratory results: article PMC6754133 (PLoS ONE, 2019)

Tests used:
Gli-1 mRNA = test: qRT-PCR of Gli-1 mRNA in MB-PDX xenograft tumors; type: in vivo, mouse
Description: NSG mice, 4–6 weeks old, were injected subcutaneously at shoulders and flanks with 1 × 10^6 viable MB-PDX cells in 1:1 HBSS and gelatinous protein mixture Matrigel. […] The tumor size was measured three times a week with a caliper, and tumor volumes were calculated according to the formula (length × width × width × 0.5). At day 42 post-grafting, all mice were euthanized by isoflurane inhalation and cervical dislocation. Tumors were harvested and stored for qRT-PCR analysis.
Both post-vivo MB-PDX cells and Math1-Cre; ptch1-flox/flox cells were analyzed for Gli-1 mRNA expression. For that, total RNA was extracted from dissociated single cells using QIAGEN RNease Mini Kit and cDNA was prepared using 1μg RNA with iScript cDNA Synthesis Kit (Bio-Rad). SYBR green-based QPCR was performed using murine primers listed as below (GLI1, Forward 5’- [sequence]-3’, Reverse 5’-[sequence]-3’, GAPDH Forward 5'-[sequence] -3', Reverse 5'-[sequence]-3'). mRNA levels were normalized to GAPDH (dCt = Ct gene of interest–Ct GAPDH) and reported as relative mRNA expression (ddCt = 2-^(dCt sample–dCt control)) in fold change.

MB-PDX xenograft = test: Subcutaneous patient-derived medulloblastoma xenograft model, tumor volume; type: in vivo, mouse; details: NSG mice, 40 mg/kg daily intraperitoneally from day 7, 42 days
Description: Tumor volumes were monitored three times a week in the course of treatment.
NSG mice, 4–6 weeks old, were injected subcutaneously at shoulders and flanks with 1 × 10^6 viable MB-PDX cells in 1:1 HBSS and gelatinous protein mixture Matrigel. […] The tumor size was measured three times a week with a caliper, and tumor volumes were calculated according to the formula (length × width × width × 0.5). At day 42 post-grafting, all mice were euthanized by isoflurane inhalation and cervical dislocation.

MB-PDX cells = test: Neurosphere formation assay; type: cell-based, human; details: Homo sapiens, 168 h, read-out: Inhibition of NS formation, wells
Description: The final concentration of test compounds in the wells was 10 μM. Cells were incubated at 37 °C for at least seven days. After incubation percent of wells positive with neural stem cell-derived sphere colonies were calculated for each test condition and compared.

[1] = test system: Gli-1 mRNA in Math1-Cre; ptch1-flox/flox cells; test: qRT-PCR of Gli-1 mRNA in Math1-Cre; ptch1-flox/flox (PTCH -/-) cells treated ex vivo; type: cell-based, mouse; details: 10 μM ex vivo, 24 hours
Description: An in vivo medulloblastoma model was established as described before. Briefly, 6–7 weeks old NOD-scid IL-2Rg null (NSG) mice (the Jackson Laboratory) were anesthetized with xylazine-ketamine, and […]. Dissociated Math1-Cre; ptch1-flox/flox cells (1×10^6 cells in 4 μL HBSS)[58] were injected into the mouse brains using murine stereotaxic system (Stoelting Co). The coordinates were: 1.8mm to the right of bregma and 3mm deep from the dura. To disassociate the orthotopic tumor into the single cells for the serial implantation or the ex-vivo experiment, the tumor was dissected from the cerebellum, followed by digestion using Papain (10 U per mL), DNase (250 U) and L-cystein (2 mg) at 37°C for 30 min.
Both post-vivo MB-PDX cells and Math1-Cre; ptch1-flox/flox cells were analyzed for Gli-1 mRNA expression. For that, total RNA was extracted from dissociated single cells using QIAGEN RNease Mini Kit and cDNA was prepared using 1μg RNA with iScript cDNA Synthesis Kit (Bio-Rad). SYBR green-based QPCR was performed using murine primers listed as below (GLI1, Forward 5’- […]-3’, Reverse 5’-[…]-3’, GAPDH Forward 5'-[…] -3', Reverse 5'-[…]-3'). mRNA levels were normalized to GAPDH (dCt = Ct gene of interest–Ct GAPDH) and reported as relative mRNA expression (ddCt = 2-^(dCt sample–dCt control)) in fold change.

[2] = test system: nuclear Gli-1 in MB-PDX cells; test: Western blot quantitation of nuclear Gli-1; type: cell-based, human; details: NS conditions, 24-hour treatment, 5 μM (Fig 6f, S4 Fig)
Description: (§1) Nuclear fractions were prepared from cell pellets according to the method of Schreiber et. al.[81] with minor modifications. […] After 24 hours, cells were lifted from the wells by pipetting, transferred to 1.5 mL Eppendorf tubes, centrifuged at 10,000 x g for 1 minutes at 4°C, and washed once in PBS. Following supernatant removal by vacuum, cells were lysed using a plasma membrane lysis buffer [10 mM HEPES; pH 7.5, 10 mM KCl, 0.1 mM EDTA, 1 mM dithiothreitol (DTT), 0.5% Nonidet P‐40 and 0.5 mM PMSF along with 1× protease inhibitor cocktail (Sigma)] and allowed to swell on ice for 15‐20 min with intermittent mixing. Next, tubes were vortexed to disrupt cell membranes and then centrifuged at 12,000 × g at 4°C for 10 min. […] The pelleted nuclei were washed with the plasma membrane lysis buffer and re-suspended in the nuclear extraction buffer [20 mM HEPES (pH 7.5), 400 mM NaCl, 1 mM EDTA, 1 mM DTT, 1 mM PMSF with 1× protease inhibitor cocktail] and incubated on ice for 30 min. The tubes were centrifuged at 12,000 ×g for 25 min at 4°C and the supernatant (now containing the soluble fraction of the cell nuclei) was collected. Total protein concentrations were determined using the Bio-Rad Protein Assay (Bio-Rad, Hercules, CA). Nuclear extracts containing the total of 40 μg protein were separated on a 10% Tris-SDS PAGE gel (Bio-Rad Mini-PROTEAN® TGX). Gels were transferred on nitrocellulose membranes using Bio-Rad TransBlot system, after which the membranes were blocked in the blocking buffer [5% nonfat dry milk in 1× Tris Buffer Saline + 0.1% Tween 20 (TBST)] for 2 hours at room temperature. Following blocking, the membranes were washed four times with TBST (5 minutes gentle rocking per wash) and incubated overnight with primary antibody Rabbit anti-Gli-1 (Cell signaling, #C68H3); 1:250 dilution in TBST-Milk at 4°C with gentle rocking. Membranes were washed three times with TBST for 5 min each.

[3] = test system: nuclear Gli-1 in DAOY cells; test: Western blot quantitation of nuclear Gli-1; type: cell-based, human; details: NS conditions, 24-hour treatment, 5 μM (Fig 6f, S4 Fig)
Description: as §1

Cc1cn(-c2cc(NC(=O)c3ccc(C)c(Nc4nccc(-c5cccnc5)n4)c3)cc(C(F)(F)F)c2)cn1 [Nilotinib]
Gli-1 mRNA expression in tumors versus vehicle (Gli-1 mRNA): significant reduction in the Gli-1 mRNA expression levels
Tumor volume versus vehicle-treated group (MB-PDX xenograft): significantly smaller tumors
inhibition at 10 µM (MB-PDX cells): > 90%
Gli-1 mRNA expression versus vehicle treated cells [1]: significant reduction in Gli-1 mRNA expression
Nuclear Gli-1, mean, % of untreated samples [2]: 41%
Nuclear Gli-1, mean, % of untreated samples [3]: 46%
